How the values were obtained:
Assay in all cases: combination Emax (second highest fraction inhibited in the dose matrix, 72 h); higher = more inhibition; extreme values may be limits of the assay
[1] = tested on: CAL-148 (Breast Carcinoma)
Method in brief: (§1)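 Bliss excess equals the observed combination effect minus the expected value EA + EB − EA·EB, where EA and EB are the effects of each agent alone. Combination Emax is the second-highest inhibition within the matrix. Inhibition was scaled from CellTiter-Glo 2.0 luminescence, with 0 set by vehicle wells and 1 by blank wells, after 72 hours of two-drug dosing of cells plated in 1536-well plates.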

[2] = tested on: Daoy (Other Solid Carcinomas)
Method in brief: as §1

[3] = tested on: HT-1376 (Bladder Carcinoma)
Method in brief: as §1

[4] = tested on: Hs-578-T (Breast Carcinoma)
Method in brief: as §1

[5] = tested on: KP-1N (Pancreatic Carcinoma)
Method in brief: as §1

[6] = tested on: KURAMOCHI (Ovarian Carcinoma)
Method in brief: as §1

[7] = tested on: LNCaP-Clone-FGC (Prostate Carcinoma)
Method in brief: as §1

[8] = tested on: LS-180 (Colorectal Carcinoma)
Method in brief: as §1

[9] = tested on: RO82-W-1 (Thyroid Gland Carcinoma)
Method in brief: as §1

[10] = tested on: Ramos-2G6-4C10 (Burkitt's Lymphoma)
Method in brief: as §1

[11] = tested on: SNU-5 (Gastric Carcinoma)
Method in brief: as §1

T98G (Glioblastoma) = tested on: T98G (Glioblastoma)
Method in brief: as §1

| SMILES | combination Emax [1] | combination Emax [2] | combination Emax [3] | combination Emax [4] | combination Emax [5] | combination Emax [6] | combination Emax [7] | combination Emax [8] | combination Emax [9] | combination Emax [10] | combination Emax [11] | combination Emax (T98G (Glioblastoma)) |
| --- | --- | --- | --- | --- | --- | --- | --- | --- | --- | --- | --- | --- |
| Cc1c2c(nn1C)CSCc1cc(n(C)n1)CSc1cc(c3ccccc3c1)OCCCc1c(C(=O)O)n(C)c3c-2c(Cl)ccc13 [AZD5991] + CN(C)CCCOc1ccc(-c2ccc3ncc4c(c3c2)n(C2CCOCC2)c(=O)n4C)cn1 [AZD0156] (first compound max 1 µM, 7x7, partner max 1 µM) | 0.417 | 0.223 | 0.196 | 0.585 | 0.229 | 0.359 | 0.429 | 0.196 | 0.265 | 0.988 | 0.255 | 0.283 |
| Cc1c2c(nn1C)CSCc1cc(n(C)n1)CSc1cc(c3ccccc3c1)OCCCc1c(C(=O)O)n(C)c3c-2c(Cl)ccc13 [AZD5991] + C[C@@H]1COCCN1C2=NC(=NC(=C2)C3(CC3)[S@](=N)(=O)C)C4=C5C=CNC5=NC=C4 [AZD6738] (first compound max 1 µM, 7x7, partner max 10 µM) | 0.942 | 0.945 | 0.455 | 0.891 | 0.279 | 0.634 | 0.688 | 0.707 | 0.525 | 1 | 0.942 | 0.875 |
| Cc1c2c(nn1C)CSCc1cc(n(C)n1)CSc1cc(c3ccccc3c1)OCCCc1c(C(=O)O)n(C)c3c-2c(Cl)ccc13 [AZD5991] + Cc1cc2ncnn2cc1Nc1ncc2c(n1)n(C1CCOCC1)c(=O)n2C [AZD7648] (first compound max 1 µM, 7x7, partner max 10 µM) | 0.45 | 0.244 | 0.221 | 0.63 | 0.279 | 0.331 | 0.42 | 0.256 | 0.376 | 1 | 0.347 | 0.361 |
| Cc1c2c(nn1C)CSCc1cc(n(C)n1)CSc1cc(c3ccccc3c1)OCCCc1c(C(=O)O)n(C)c3c-2c(Cl)ccc13 [AZD5991] + Cn1cnc2c(F)c(Nc3ccc(Br)cc3Cl)c(C(=O)NOCCO)cc21 [Selumetinib] (first compound max 1 µM, 7x7, partner max 3 µM) | 0.329 | 0.278 | 0.272 | 0.54 | 0.189 | 0.485 | 0.129 | 0.589 | 0.311 | 0.998 | 0.495 | 0.249 |
| C[C@@H]1COCCN1c1cc(C2([S@](C)(=N)=O)CC2)nc(-c2ccnc3[nH]ccc23)n1 [AZD6738] + O=C(c1cc(Cc2n[nH]c(=O)c3ccccc23)ccc1F)N1CCN(C(=O)C2CC2)CC1 [Olaparib] (first compound max 10 µM, 7x7, partner max 10 µM) | 0.935 | 0.867 | 0.456 | 0.898 | 0.425 | 0.549 | 0.73 | 0.733 | 0.353 | 0.779 | 0.909 | 0.817 |
| Cc1cc2ncnn2cc1Nc1ncc2c(n1)n(C1CCOCC1)c(=O)n2C [AZD7648] + C=CCn1c(=O)c2cnc(Nc3ccc(N4CCN(C)CC4)cc3)nc2n1-c1cccc(C(C)(C)O)n1 [AZD1775] (first compound max 10 µM, partner max 1 µM) | 0.928 | 0.869 | 0.408 | 0.77 | 0.349 | 0.664 | 0.775 | 0.5 | 0.46 | 0.998 | 0.558 | 0.711 |
| Cc1cc2ncnn2cc1Nc1ncc2c(n1)n(C1CCOCC1)c(=O)n2C [AZD7648] + CCN(CCO)CCCOc1ccc2c(Nc3cc(CC(=O)Nc4cccc(F)c4)[nH]n3)ncnc2c1 [AZD2811] (first compound max 10 µM, 7x7, partner max 1 µM) | 0.911 | 0.445 | 0.235 | 0.623 | 0.134 | 0.238 | 0.535 | 0.388 | 0.358 | 0.789 | 0.354 | 0.467 |
| Cc1cc2ncnn2cc1Nc1ncc2c(n1)n(C1CCOCC1)c(=O)n2C [AZD7648] + CN(C)CCCOc1ccc(-c2ccc3ncc4c(c3c2)n(C2CCOCC2)c(=O)n4C)cn1 [AZD0156] (first compound max 10 µM, 7x7, partner max 1 µM) | 0.424 | 0.313 | 0.2 | 0.513 | 0.188 | 0.192 | 0.546 | 0.358 | 0.394 | 0.292 | 0.376 | 0.266 |
| Cc1cc2ncnn2cc1Nc1ncc2c(n1)n(C1CCOCC1)c(=O)n2C [AZD7648] + C[C@@H]1COCCN1C2=NC(=NC(=C2)C3(CC3)[S@](=N)(=O)C)C4=C5C=CNC5=NC=C4 [AZD6738] (first compound max 10 µM, 7x7, partner max 10 µM) | 0.828 | 0.784 | 0.546 | 0.912 | 0.252 | 0.567 | 0.703 | 0.754 | 0.478 | 0.944 | 0.931 | 0.859 |
| Cc1cc2ncnn2cc1Nc1ncc2c(n1)n(C1CCOCC1)c(=O)n2C [AZD7648] + O=C(c1cc(Cc2n[nH]c(=O)c3ccccc23)ccc1F)N1CCN(C(=O)C2CC2)CC1 [Olaparib] (first compound max 10 µM, 7x7, partner max 10 µM) | 0.255 | 0.357 | 0.0682 | 0.507 | 0.257 | 0.16 | 0.533 | 0.338 | 0.251 | 0.169 | 0.374 | 0.203 |
| NC1(C(=O)N[C@@H](CCO)c2ccc(Cl)cc2)CCN(c2ncnc3[nH]ccc23)CC1 [Capivasertib] + CC(=O)c1c(C)c2cnc(Nc3ccc(N4CCNCC4)cn3)nc2n(C2CCCC2)c1=O [Palbociclib] (first compound max 10 µM, 7x7, partner max 10 µM) | 0.964 | 0.397 | 0.144 | 0.676 | 0.451 | 0.29 | 0.945 | 0.61 | 0.218 | 0.42 | 0.379 | 0.6 |
| NC1(C(=O)N[C@@H](CCO)c2ccc(Cl)cc2)CCN(c2ncnc3[nH]ccc23)CC1 [Capivasertib] + CC(C)n1c(=O)n(C)c2cnc3cc(F)c(-c4ccc(OCCCN5CCCCC5)nc4)cc3c21 [AZD1390] (first compound max 10 µM, 7x7, partner max 0.3 µM) | 0.971 | 0.33 | 0.144 | 0.682 | 0.254 | 0.294 | 0.956 | 0.33 | 0.244 | 0.447 | 0.43 | 0.449 |
| NC1(C(=O)N[C@@H](CCO)c2ccc(Cl)cc2)CCN(c2ncnc3[nH]ccc23)CC1 [Capivasertib] + CCN(CCO)CCCOc1ccc2c(Nc3cc(CC(=O)Nc4cccc(F)c4)[nH]n3)ncnc2c1 [AZD2811] (first compound max 10 µM, 7x7, partner max 1 µM) | 1 | 0.501 | 0.156 | 0.732 | 0.288 | 0.332 | 0.994 | 0.312 | 0.215 | 0.807 | 0.499 | 0.437 |
| NC1(C(=O)N[C@@H](CCO)c2ccc(Cl)cc2)CCN(c2ncnc3[nH]ccc23)CC1 [Capivasertib] + COc1nnc2ccc(N3CCC(c4ccc(OCCN5CCN(C)C(=O)[C@H]5C)cc4)CC3)nn12 [AZD5153] (first compound max 10 µM, 7x7, partner max 1 µM) | 1 | 0.676 | 0.108 | 0.887 | 0.621 | 0.776 | 0.993 | 0.694 | 0.362 | 0.997 | 0.564 | 0.699 |
| NC1(C(=O)N[C@@H](CCO)c2ccc(Cl)cc2)CCN(c2ncnc3[nH]ccc23)CC1 [Capivasertib] + C[C@@H]1COCCN1C2=NC(=NC(=C2)C3(CC3)[S@](=N)(=O)C)C4=C5C=CNC5=NC=C4 [AZD6738] (first compound max 10 µM, 7x7, partner max 10 µM) | 0.986 | 0.901 | 0.377 | 0.823 | 0.323 | 0.535 | 0.989 | 0.825 | 0.215 | 0.922 | 0.919 | 0.867 |
| NC1(C(=O)N[C@@H](CCO)c2ccc(Cl)cc2)CCN(c2ncnc3[nH]ccc23)CC1 [Capivasertib] + Cn1cnc2c(F)c(Nc3ccc(Br)cc3Cl)c(C(=O)NOCCO)cc21 [Selumetinib] (first compound max 10 µM, 7x7, partner max 10 µM) | 0.981 | 0.472 | 0.18 | 0.746 | 0.393 | 0.444 | 0.969 | 0.771 | 0.277 | 0.435 | 0.756 | 0.49 |
| Cc1nc(Nc2ncc(C(=O)Nc3c(C)cccc3Cl)s2)cc(N2CCN(CCO)CC2)n1 [Dasatinib] + CC(=O)Nc1cccc(-n2c(=O)n(C3CC3)c(=O)c3c(Nc4ccc(I)cc4F)n(C)c(=O)c(C)c32)c1 [Trametinib] (first compound max 2 µM, 7x7, partner max 1 µM) | 0.254 | 0.41 | 0.241 | 0.922 | 0.478 | 0.937 | 0.15 | 0.747 | 0.436 | 0.238 | 0.654 | 0.744 |
| COc1cccc2c1C(=O)c1c(O)c3c(c(O)c1C2=O)C[C@@](O)(C(=O)CO)C[C@@H]3O[C@H]1C[C@H](N)[C@H](O)[C@H](C)O1 [Doxorubicin] + Cc1cc2ncnn2cc1Nc1ncc2c(n1)n(C1CCOCC1)c(=O)n2C [AZD7648] (first compound max 1 µM, 7x7, partner max 10 µM) | 1 | 0.875 | 0.182 | 0.856 | 0.675 | 0.546 | 0.819 | 0.736 | 0.628 | 0.951 | 0.823 | 0.597 |
